“And” between values parts separate entries of the source, which are not always exact repeats. Equal values may be shown once. “Also recorded” adds a separate entry of the source. Read-outs that look alike come from different tables or passages of the source.
Tests used:
[1] = target: recombinant human wild-type TTR (WT-TTR) (Homo sapiens (Human), UniProt P02766); details: for inhibition of amyloid fibril formation by TTR (in words): compounds at 2×, 1× and 0.5× of WT-TTR (3.6 μM), 72 hours, FIG. 5; for IC50: read-out: IC50 ± S.D. (concentration inhibiting TTR amyloid fibril formation by 50%), WT-TTR 3.6 μM, pH 4.4, 72 hours at 37° C., mean of at least 3 determinations; for IEI (inhibition efficiency index): IEI = (pIC50/MW) × 1000; for ILE (inhibition lipophilic efficiency): ILE = pIC50 − cLogP; for pIC50: negative logarithm of IC50 values
[2] = target: wild type TTR in human plasma (Homo sapiens (Human), UniProt P02766); test: Ex vivo TTR stability to dissociation assay (IEF, 4 M urea), plasma of normal subjects; format: biochemical; details: wild type TTR plasmas, 5 samples, IEF densitometry
Procedure: (§1) In an embodiment, the AT09-B00 compound was further tested ex vivo for its effect on the stability of human plasma TTR, using isoelectric focusing (IEF) under semi-denaturating conditions, i.e. in the presence of 4 M of urea—as described in this disclosure and in references. After plasma incubation with the test and reference compounds, TTR was isolated by PAGE and run on IEF. Bands corresponding to different TTR species were quantified and the tetramer to total protein ratio was determined. Under the experimental conditions used, TTR presented a typical pattern of two main bands, representing monomers (normal and oxidized forms), and several bands of lower isoelectric point (pI) indicating different forms of TTR tetramers.
(§2) In an embodiment, ex vivo TTR stability assays were conducted. Plasma TTR stability to dissociation is assessed by isoelectric focusing (IEF) in semi-denaturing conditions of human plasma samples as described in references. To perform the assay, 30 μL of human plasma are incubated with 5 μL of a 10 mM solution of test compounds and control compounds overnight at 4° C. followed by a 1 hour incubation at room temperature. The samples are then subjected to native PAGE and the gel band containing TTR is excised and applied to an IEF gel. […] The results are expressed as the average ratio of TTR tetramer for over total TTR over 5 repetitions±the standard deviation.

[3] = tested on: TTR in human plasma (versus albumin and thyroxine-binding globulin); test: Ex vivo thyroxine ([125I]-T4) competition assay in human plasma (native PAGE); details: FIG. 9 A; for displacement of T4 from TTR / binding affinity for TTR (increasing order, in words): heterozygotic TTR V30M carriers and normal subjects, B
Procedure: After electrophoresis, the gels are dried, subjected to phosphor imaging (Typhoon 8600; […], Amersham Biosciences), and analysed using the ImageQuant program version 5.1. The intensity of the protein bands is compared. Two or three bands of different intensity should be visualized in plasma samples.
The results are analyzed by calculation of the TTR/total (TTR+ALB+TBG) ratio for each sample.

[4] = tested on: HepG2 cells (human liver carcinoma cell line); test: HepG2 cell viability assay (resazurin reduction); format: cell-based; details: for toxicity for HepG2 cells (in words): 72 hours, even at high doses, FIG. 10; for ID50: HepG2, 72 hours of incubation
Procedure: In an embodiment, the toxicity profiling in HepG2 cell lines was evaluated. […] Further toxicology is required if AT09 compounds are to be progressed to subsequent stages of development, not only to discard potential liver damage (or toxicity to other organs/tissues) but also given the long-term nature of treatments required by patients suffering from TTR amyloidoses (such as FAP), associated co-morbidities, or other TTR-related pathologies.
In an embodiment, the HepG2 cell viability assay was conducted as follows:
Adherent human hepatoma cells HepG2 were cultured in DMEM (Dulbecco's Modified Eagle's Medium) with 10% fetal bovine serum (FBS), 100 U/mL penicillin, 100 μg/mL streptomycin, and 1 mM sodium pyruvate. The cells were grown in 75 cm^2 culture flasks at 37° C., in an atmosphere of 5% CO2, and subcultured twice a week using a trypsin-EDTA solution.
Upon 3-4 days of growth and reaching approximately 90-95% confluence, HepG2 cells were plated in 96-well microplates with cell density of 12×10^3 cells/well and in a volume of 100 μL per well.
In this assay, the compounds were dissolved in pure DMSO and subsequently diluted in DMEM (in 9 intermediate compound concentrations). After adhesion of HepG2 cells to the microplates, 100 μL of each solution of intermediate compound concentration was added to each well (in quadruplicate). Positive controls with 10 wells containing only cells were tested; solvent controls resulted from the analyses of the three highest DMSO concentrations tested and were carried out in triplicate.
After addition of the compounds to the cells, the microplates were incubated for approximately 72 hours at 37° C. in an atmosphere of 5% CO2 until the cell viability assay was performed.
The viability of HepG2 cells in the presence of test compounds was assessed by the resazurin reduction assay. A stock solution of 0.01% resazurin in PBS is diluted 1:10 in incomplete RPMI 1640 cell medium (without addition of antibiotics and FBS). After washing the cells with 200 μL PBS containing Ca^2+ and Mg^2+, 200 μL of 0.001% resazurin were added to the wells. Blanks with incomplete RPMI 1640 medium alone were done in triplicate. The microplates were incubated at 37° C. and 5% CO2 for approximately 2-4 hours.
To quantify the reduction of resazurin, microplate absorbance readings were taken at two wavelengths, 540 nm (reduced form) and 630 nm (oxidized form), in a microplate spectrophotometer (BioTek Instruments, Inc.). The percentage of viable cells at each compound concentration was determined using the equation % viable cells=[(ε630 nm×Abs540 nm)−(ε540 nm×Abs630 nm)]/[(ε630 nm×Ctrl540 nm)−(ε540 nm×Ctrl630 nm)]
where ε is the molar extinction coefficient, Abs is the absorbance and Ctrl is the absorbance of the positive control (cells without compound).

[5] = target: TTR V30M in human plasma (Homo sapiens (Human), UniProt P02766, V30M); test: Ex vivo TTR stability to dissociation assay (IEF, 4 M urea), plasma of heterozygotic V30M carriers; format: biochemical; details: plasmas of heterozygotic V30M carriers, 5 samples, IEF densitometry
Procedure: as §1, §2

[6] = target: WT-TTR (Homo sapiens (Human), UniProt P02766); test: Isothermal titration calorimetry (ITC) with WT-TTR; details: 25° C., pH 7.2, 2% DMSO, model with two ligand-binding sites
Procedure: In an embodiment, Isothermal titration calorimetry (ITC) experiments were conducted to determine the binding constants of bis-furan compounds to TTR. […] An initial injection of 4 μL of titrant was followed by 28 regular injections of 10 μL until saturation of the titrated solution was reached. The heat associated with each injection was measured throughout time and calculated by integration of the area under the deflection of the measured peak, after baseline correction (i.e. subtraction of blank). Further details about the ITC experiments are provided herein.
The corresponding dissociation constants were calculated according to the equation given herein.
In an embodiment, the isothermal titration calorimetry (ITC) experiments were performed on a Malvern high precision VP-ITC titration calorimetry system (Malvern Instruments, Worcestershire, UK; previously from MicroCal). Compound stock solutions were prepared in pure DMSO. Both compound and WT-TTR dilutions were prepared in 20 mM sodium phosphate buffer, 150 mM sodium chloride and 2% DMSO, at pH 7.2. All solutions were filtered and degassed prior to use.
In an embodiment, in all titrations, the initial injection of 4 μL of titrant to the calorimetric cell was followed by 28 injections at regular intervals of 10 μL each, until saturation of the titrated solution was reached. […] The extent of binding was determined by direct measurement of the heat exchanged with the environment: the heat associated with each injection is proportional to the complex concentration and can be calculated by integrating the area under the deflection of the measured calorimetric signal. Data were analyzed with the Origin 7.0 software package from Malvern. A baseline correction was applied to each experiment by subtraction of data from injections of ligand solution into a buffer blank correlating to the heat of dilution of the ligand solution. For the calculation of the association constant (Ka), data analysis was performed according to a model of binding to a macromolecule with two ligand-binding sites, by non-linear regression. The reported dissociation constant (Kd) is the reciprocal of Ka, according to the equation ΔG=−RTInKa=RTInKd, where ΔG is the Gibbs free energy of binding, R is the gas constant and T is the temperature.

[7] = tested on: familial amyloid polyneuropathy (FAP) patients; details: 18-month phase-III clinical trial; cited from earlier work
[8] = tested on: AD/TTR+/− mice; details: cited from earlier work

Row | IC50 [1] | IEI (inhibition efficiency index) [1] | ILE (inhibition lipophilic efficiency) [1] | pIC50 [1] | Compound | inhibition of amyloid fibril formation by TTR (in words) [1] | displacement of T4 from TTR / binding affinity for TTR (increasing order, in words) [3] | further results
1 | 7100 nM | – | – | – | Cc1oc(CSCc2cc(C(=O)O)c(C)o2)cc1C(=O)O [AT09-A00, bis((3-carboxy-2-methyl-furan-5-yl)methyl)sulfane] | lower inhibitory activity than tafamidis and thyroxine | – | –
2 | 2020 nM | 22.6 | 2.77 | 5.69 | Cc1c(C(=O)O)coc1/C=C/c1ccc(Cl)o1 [AT09-B00, (E)-5-(2-(5-chlorofuran-2-yl)vinyl)-4-methylfuran-3-carboxylic acid] | approaching the high levels of activity of 2OH—PCB80 | iododiflunisal<tafamidis<AT09-B00; also recorded: at least comparable to the current drug | tetramer to total protein ratio [2]: 0.961; specificity for TTR versus TBG and albumin (in words) ([3]; band intensity): small difference in band intensity for TBG and albumin; toxicity for HepG2 cells (in words) [4]: relatively low toxicity for HepG2 cells; tetramer to total protein ratio [5]: 0.481; Kd ([6]; read-out: Kd1): 3.5 nM; Kd ([6]; read-out: Kd2): 357 nM
3 | – | – | – | – | CNC[C@H](O)[C@@H](O)[C@H](O)[C@H](O)CO.O=C(O)c1ccc2nc(-c3cc(Cl)cc(Cl)c3)oc2c1 [Tafamidis meglumine, N-methyl D-(2,3,4,5,6-pentahydroxy-hexyl)-ammonium; 2-(3,5-dichloro-phenyl)-benzoxazole-6-carboxylate] | – | – | FAP patients with improvement of symptoms [7]: approximately 60%
4 | – | – | – | – | O=C(O)c1ccc2nc(-c3cc(Cl)cc(Cl)c3)oc2c1 [Tafamidis] | – | iododiflunisal<tafamidis<AT09-B00 | FAP patients with improvement of symptoms [7]: approximately 60%; ID50 [4]: 76.1 μg/mL and 247 μM; ID50 ([4]; listed as tafamidis): more than 75 μg/mL
5 | – | – | – | – | O=C(O)c1cc(-c2ccc(F)cc2F)cc(I)c1O [iododiflunisal, reference compound] | – | iododiflunisal<tafamidis<AT09-B00 | brain Abeta levels and deposition, cognitive function [8]: decreased brain Aβ levels and deposition; also recorded: decreased brain Abeta levels and deposition; tetramer to total protein ratio [2]: 0.768; tetramer to total protein ratio [5]: 0.445
6 | 2490 nM | 22.3 | 2.99 | 5.60 | (E)-5-(2-(5-chlorofuran-2-yl)vinyl)-1-methylfuran-3-carboxylic acid [AT09-B06] | stronger inhibition | – | toxicity for HepG2 cells (in words) [4]: relatively low toxicity for HepG2 cells; Kd ([6]; read-out: Kd1): 3.9 nM; Kd ([6]; read-out: Kd2): 278 nM

Row | Compound | IC50 [1] | IEI (inhibition efficiency index) [1] | ILE (inhibition lipophilic efficiency) [1] | pIC50 [1] | inhibition of amyloid fibril formation by TTR (in words) [1] | displacement of T4 from TTR / binding affinity for TTR (increasing order, in words) [3] | further results
7 | Oc1c(Cl)cc(-c2cc(Cl)c(O)c(Cl)c2)cc1Cl [Compound 2OH-PCB80, reference compound] | 1590 nM | 18.0 | 0.37 | 5.80 | – | – | ID50 [4]: 19.4 μg/mL and 60 μM
